Measured values: patent publication US7868135B2, “Compositions of lipopeptide antibiotic derivatives and methods of use thereof” (priority 2003, dated 2011)
Where two headings read alike, the source gives them in different places.

Tests used:
[1] = tested on: Staphylococcus aureus (MSSA)
Procedure, shortened: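 Broth microdilution MIC per NCCLS M7-A6 with doubling serial dilutions, in cation-adjusted Mueller-Hinton broth supplemented with 0.625 mM calcium.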

[2] = tested on: Enterococcus faecium EFM0101 (VRE, MDR); test: Broad spectrum MIC, Table 17/18 column A; type: cell-based; details: condition A of Table 17, in µg/mL
Method: (§1) The antimicrobial lipopeptide derivatives described herein were tested for antimicrobial activity against Gram-positive bacteria as follows. The minimum inhibitory concentrations (MIC) of the antimicrobial lipopeptide derivatives of the invention were determined using NCCLS guidelines M7-A6 (2003) with a slight modification in that doubling serial dilutions were used to dilute the test compounds. The broth phase microdilution method was used. Isolated colonies of Staphylococcus aureus (MSSA) from an 18-24 hour blood agar plate cultures were used to inoculate cation adjusted Mueller-Hinton broth (CAMHB) supplemented with 0.625 mM calcium. […] A negative control containing media alone and a positive growth control containing bacteria with media alone were also included. MICs were determined after incubating the plates at about 37° C. for 24 hours. […] In Tables 1 to 16, R is the core cyclic peptide of amphomycin or aspartocin, which can be in the form of a β-isomer, an anhydro, a dianhydro, or any combination thereof. […] Furthermore, a person of skill in the art will appreciate that all the pounds, or groups of compounds, derived from the various combinations of and substituents shown in Tables 1 to 16, are disclosed by the present the same extent as if each compound or group of compounds was set forth individually.
(§2) Antimicrobial lipopeptide derivatives of the instant invention were tested for antimicrobial activity against Gram-positive bacteria in a variety of media conditions. The […] (MIC) of the antimicrobial lipopeptide derivatives were determined as described in Example 376. The various media used are described in Table 17.

[3] = tested on: Enterococcus faecalis EFS0004 (VSE); test: Broad spectrum MIC, Table 17/18 B, C, D (CAMHB; + 0.625 mM calcium; + calcium and 30% bovine serum); type: cell-based; details: in µg/mL; for MIC, media condition B: condition B: CAMHB; for MIC, media condition C: condition C: + 0.625 mM calcium; for MIC, media condition D: condition D: + calcium and 30% bovine serum
Method: as §1, §2

[4] = tested on: Staphylococcus aureus SAU0017 (MSSA); test: Broad spectrum MIC, Table 17/18 columns E, F (+ 0.625 mM calcium; + calcium and 30% bovine serum); type: cell-based; details: in µg/mL; for MIC, media condition E: condition E: + 0.625 mM calcium; for MIC, media condition F: condition F: + calcium and 30% bovine serum
Method: as §1, §2

[5] = tested on: Staphylococcus aureus SAU0031 (VISA); test: Broad spectrum MIC, Table 17/18 column G; type: cell-based; details: condition G of Table 17, in µg/mL
Method: as §1, §2

[6] = tested on: Staphylococcus aureus SAU0065 (MRSA); test: Broad spectrum MIC, Table 17/18 column H; type: cell-based; details: condition H of Table 17, in µg/mL
Method: as §1, §2

[7] = tested on: Staphylococcus epidermidis SEP0375 (MRSE); test: Broad spectrum MIC, Table 17/18 column I; type: cell-based; details: condition I of Table 17, in µg/mL
Method: as §1, §2

[8] = tested on: Streptococcus pneumoniae SPN0002 (PISP); test: Broad spectrum MIC, Table 17/18 column J; type: cell-based; details: condition J of Table 17, in µg/mL
Method: as §1, §2

[9] = tested on: Streptococcus pneumoniae SPN0023 (PRSP); test: Broad spectrum MIC, Table 17/18 column K; type: cell-based; details: condition K of Table 17, in µg/mL
Method: as §1, §2

[10] = tested on: Streptococcus pneumoniae SPN0032 (PSSP); test: Broad spectrum MIC, Table 17/18 column L; type: cell-based; details: condition L of Table 17, in µg/mL
Method: as §1, §2

[11] = tested on: Streptococcus pyogenes SPY0001 (PenS); test: Broad spectrum MIC, Table 17/18 column M; type: cell-based; details: condition M of Table 17, in µg/mL
Method: as §1, §2

Row | SMILES | MIC ([1]; 24 h) [µg/mL] | MIC, media condition A [2] | MIC, media condition B [3] | MIC, media condition C [3] | MIC, media condition D [3] | MIC, media condition E [4] | MIC, media condition F [4] | MIC, media condition G [5] | MIC, media condition H [6] | MIC, media condition I [7] | MIC, media condition J [8] | MIC, media condition K [9] | MIC, media condition L [10] | MIC, media condition M [11] | MIC ([1]; S. aureus (MSSA), CAMHB supplemented with 0.625 mM calcium, 24 hours at about 37° C., a range = compound tested multiple times)
1 | CCCCCCCCCCCCCCC(=O)NC(CC(=O)O)C(=O)NC1C(=O)N2CCCCC2C(=O)NC(C(C)C(=O)O)C(=O)NC(CC(=O)O)C(=O)NCC(=O)NC(CC(=O)O)C(=O)NCC(=O)NC(C(C)NC(=O)CNC(=O)[C@@H](C)N)C(=O)NC(C(C)C)C(=O)N2CCCC2C(=O)NC1C (stereo partly drawn) [Compound 69, C15-Amphomycin-9-Gly-(D-Ala)] | 1 | 4 | 8 | 4 | >64 | 1 | 32 | 8 | 2 | 4 | 1 | 1 | 2 | 1 | 
2 | CCCCCCCCCCCCCCCCC(=O)NC(CC(=O)O)C(=O)NC1C(=O)N2CCCCC2C(=O)NC(C(C)C(=O)O)C(=O)NC(CC(=O)O)C(=O)NCC(=O)NC(CC(=O)O)C(=O)NCC(=O)NC(C(C)NC(=O)CCN)C(=O)NC(C(C)C)C(=O)N2CCCC2C(=O)NC1C (stereo not drawn) [Compound 80, C17-Amphomycin-9-(β-Ala)] |  | 0.5-1 | 0.5-1 | 0.5-1 | 64 | 0.5-1 | 16-32 | 8 | 2 | 1-2 | 0.125 | 0.125 | 0.25 | 0.25-0.5 | 80/0.5-1 μg/mL
3 | CCCCCCCCCCCCNC(=O)NC(CC(=O)O)C(=O)NC1C(=O)N2CCCCC2C(=O)NC(C(C)C(=O)O)C(=O)NC(CC(=O)O)C(=O)NCC(=O)NC(CC(=O)O)C(=O)NCC(=O)NC(C(C)NC(=O)CN)C(=O)NC(C(C)C)C(=O)N2CCCC2C(=O)NC1C (centres unmarked) [Compound 92, CH3—(CH2)11—NH—C(═O)-Amphomycin-9-Gly] | 0.25 to 0.5 | 1-2 | 6-16 | 2-4 | 64 | 0.25-0.5 | 8 | 4 | 1-2 | 0.5-1 | 0.25 | 0.125 | 0.25 | 0.25 | 
4 | CCCCCCCCCCCCNC(=O)NC(CC(=O)O)C(=O)NC1C(=O)N2CCCCC2C(=O)NC(C(C)C(=O)O)C(=O)NC(CC(=O)O)C(=O)NCC(=O)NC(CC(=O)O)C(=O)NCC(=O)NC(C(C)NC(=O)CCN)C(=O)NC(C(C)C)C(=O)N2CCCC2C(=O)NC1C (stereo not drawn) [Compound 97, CH3—(CH2)11—NH—C(═O)-Amphomycin-9-(β-Ala)] | 0.25 | 2 | 64 | 4 | 64 | 0.25 | 16 | 4 | 1 | 1 | 0.125 | 0.25 | 0.125 | 0.5 | 
5 | CCCCCCCCCCCCNC(=O)NC(CC(=O)O)C(=O)NC1C(=O)N2CCCCC2C(=O)NC(C(C)C(=O)O)C(=O)NC(CC(=O)O)C(=O)NCC(=O)NC(CC(=O)O)C(=O)NCC(=O)NC(C(C)NC(=O)CNC)C(=O)NC(C(C)C)C(=O)N2CCCC2C(=O)NC1C (centres unmarked) [Compound 98, CH3—(CH2)11—NH—C(═O)-Amphomycin-9-Sar] | 0.5 | 2 | 32 | 4 | >64 | 0.5 | 16 | 4 | 1 | 1 | 0.125 | 0.25 | 0.5 | 0.5 | 
6 | CCCCCCCCCCCCCCC(=O)NC(CC(=O)O)C(=O)NC1C(=O)N2CCCCC2C(=O)NC(C(C)C(=O)O)C(=O)NC(CC(=O)O)C(=O)NCC(=O)NC(CC(=O)O)C(=O)NCC(=O)NC(C(C)NC(=O)[C@@H]2CCCN2)C(=O)NC(C(C)C)C(=O)N2CCCC2C(=O)NC1C (some centres unmarked) [Compound 160, C15-Amphomycin-9-Pro] | 4 | 8 | 16 | 8 | >64 | 4 | >64 | 16 | 4 | 4 | 0.5 | 0.25 | 2 | 2 | 
7 | CCCCCCCCCCCCNC(=O)NC(CC(=O)O)C(=O)NC1C(=O)N2CCCCC2C(=O)NC(C(C)C(=O)O)C(=O)NC(CC(=O)O)C(=O)NCC(=O)NC(CC(=O)O)C(=O)NCC(=O)NC(C(C)N)C(=O)NC(C(C)C)C(=O)N2CCCC2C(=O)NC1C (centres unmarked) [Compound 251, CH3—(CH2)11—NH—C(═O)-Amphomycin] | 2 | 4 | 8 | 4 | 32 | 2 | 8 | 4 | 2 | 2 | 0.5 | 1 | 1 | 2 | 
